Measured values: US20060117411A1, “Enhancing plant pathogen resistance via increasing BiP levels” (priority 1998, published 2006)

How the values were obtained:
β-1,3-glucanase mRNA = experiment: Tunicamycin treatment of tobacco protoplasts, Northern blot of β-1,3-glucanase; assay type: cell-based, Nicotiana tabacum; conditions: tunicamycin 20 μg/mL
Description: To compare the CDE- and UPR-mediated induction of BiP, we wanted to test if both stimuli are additive. […] This is not surprising as protoplasts are prepared with CDEs. These protoplasts were then treated with tunicanycin, to superimpose the UPR onto the CDE response. […] The additional ER stress could trap BiP in malfolded protein complexes, thus making it unavailable to promote PR protein synthesis on the rough ER.
During prolonged incubation times, transcript levels encoding secretory proteins recover to almost normal (initial) values again. Identical results were obtained with other transcripts encoding the secretory proteins acidic chitinase and basic chitinase present in tobacco protoplasts, showing that the effect is not restricted to β-1,3-glucanase (data not shown).
(§1) Protoplasts RNAs were extracted as described by Jones et al., (1985). Leaves were ground in frozen liquid nitrogen and transferred to NTES buffer (0.1 M NaCl, 10 mM Tris pH 7.5, 1 mM EDTA, 1% SDS). Protoplasts samples were frozen in liquid nitrogen and thawed in NTES buffer. RNA was extracted after adding an equal volume of phenol/chloroform. Ethanol precipitation was carried out after incubation at −20° C. for 16 hours. The pellet was resuspended and RNA was selectively precipitated with LiCl (2M LiCl) for 2 hours on ice. The pellet was washed with 70% ethanol and resuspended in diethyl pyrocarbonate-treated water. […]

PR1 mRNA = experiment: SA spraying of Arabidopsis WT and saiI mutant, Northern blot of PR1; assay type: in vivo, Arabidopsis thaliana; conditions: SA 5 mM
Description: WT and saiI mutants of the same ecotype were sprayed with SA (5 mM) and incubated in the light. Total RNA was extracted and probed with the PR1 and BiP gene from Arabidopsis. The induction of PR1 in WT Arabidopsis was detected 3 hours after SA-treatment and continued to increase until 8 hours (FIG. 10). […] As in tobacco plants, BiP mRNA levels increase prior to PR1 transcripts in SA treated Arabidopsis plants (FIG. 10) and diminish after prolonged incubations (data not shown).
Plants of Nicotiana tabacum cultivar Petit Havana (Maliga et al., 1973) were axenically grown in MS medium (Murashige and Skoog, 1962), 2% Sucrose in a temperature controlled room at 25° C. with a 16 h day/[…] regime and a light irradiance of 200 μE.m^−2.s^−1. Arabidopsis thaliana Nössen WT and saiI plants (Shah et al., 1997) were grown under the same conditions.
Plants were sprayed with 5 mM SA and 0.5% Tween 20 from all sides, ensuring contact on both sides of each leaf of the plant. Typically, 10 ml of the SA solution was sprayed onto each plant. Plants were then transferred from the 16 h day/8 h night regime to constant light regime.
as §1, with “water. Gel blots of total RNA denatured in formamide and formaldehyde were prepared. RNA was blotted onto Hybond-N membrane (Amersham Corp), as described by the manufacturer.” for “water.”

BiP protein levels = experiment: SA spraying of tobacco plants, protein gel blot of BiP; assay type: in vivo, Nicotiana tabacum; conditions: sprayed with SA 5 mM
Description: It has been shown that SA is involved in the induction of PR genes (reviewed by Malamy and Klessig, 1992) and that this signal molecule also induces the expression of ER chaperones (Denecke et al, 1995). We wanted to investigate whether ER chaperone induction is a consequence of the high synthesis rates of PR genes and used BiP as a model system. Tobacco plants were sprayed with SA (5 mM) and the exact timing of the SA-mediated induction of PR-gene PRI was compared to that of BiP. PR1 was chosen as a representative marker for SA-mediated induction of PR genes as its response to SA is faster and more pronounced than that of acidic chitinase, basic chitinase and basic β-1.3 glucanase (Vidal et al, 1997). […] In contrast SA-induced transcription of PR1 starts only after 6-8 hours and continues to accumulate upto 16 hours after treatment. At this time-point, BiP mRNA levels start to decrease again. […]
Fully expanded leaves were collected and quickly frozen in liquid nitrogen. […] Protein concentrations were determined using Bio-Rad protein assay reagent
Proteins in SDS-polyacrylamide gels were transferred onto a nitrocellulose membrane and then blocked with PBS, 0.5% Tween 20, and 5% milk powder for 1 hr. […] Detection of antigen-antibody complexes was performed with enhanced chemiluminescence (ECL, Amersham Corp), and the images were recorded on film.

| Compound | transcript level of β-1,3-glucanase during UPR-induced BiP transcription (time course) (β-1,3-glucanase mRNA; protoplasts) | β1,3-glucanase expression in protoplasts (β-1,3-glucanase mRNA; 2.5 hrs) | PR1 induction during SA-treatment in saiI mutant (PR1 mRNA; Arabidopsis saiI mutant) | time after SA-treatment at which induction of PR1 is detected (PR1 mRNA; WT Arabidopsis, light) [h] | time until which PR1 induction continues to increase (PR1 mRNA; WT Arabidopsis, light) [h] | time of induction after which a significant increase of BiP protein levels is noticeable (BiP protein levels) [h] |
| --- | --- | --- | --- | --- | --- | --- |
| tunicamycin | rapidly decreases | inhibited | – | – | – | – |
| O=C(O)c1ccccc1O [SA, Salicylic Acid] | – | – | completely abolished | 3 | ≤ 8 | 4 to 6 |
